# Molecular target: LSD1 (Homo sapiens (Human), UniProt O60341)
# Test: biochemical
# Experimental: LANCE LSD1/KDM1A demethylase assay—10 μL of 1 nM LSD-1 enzyme (ENZO BML-SE544-0050) in the assay buffer (50 mM Tris, pH 7.5, 0.01% Tween-20, 25 mM NaCl, 5 mM DTT) were preincubated for 1 hour at 25° C. with 0.8 μL compound/DMSO dotted in black 384 well polystyrene plates. […] After stopping the reactions plates were incubated for 30 minutes and read on a PHERAstar FS plate reader (BMG Labtech).
row,IC50 [nM],Compound
1,< 100,"COCC1(CN[C@@H]2C[C@H]2c2ccccc2)CCN(C(=O)N2CCC(O)CC2)CC1 [Example 112, 1-{[4-(methoxymethyl)-4-({[(1R,2S)-2-phenylcyclopropyl]amino}methyl)piperidin-1-yl]carbonyl}piperidin-4-ol]"
2,< 100,"N#Cc1ccc(CC2(CN[C@@H]3C[C@H]3c3ccccc3)CCN(CC3(C(=O)O)CC3)CC2)c(F)c1 [Example 74, 1-{[4-(4-cyano-2-fluorobenzyl)-4-({[(1R,2S)-2-phenylcyclopropyl]amino}methyl)piperidin-1-yl]methyl}cyclopropanecarboxylic Acid]"
